The values below come from PubChem BioAssay (NCI).

Molecules are shown by their SMILES.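 The compound was tested at five concentrations on cells cultured in 96-well plates, with a 48-hour exposure period. Abbreviation: GI50, concentration required for 50% inhibition of growth. TGI: total growth inhibition.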 A value given as a limit tells only on which side of the number the result lay.

Holding throughout (experiment): NCI tumour cell line growth inhibition, 48 h
Assay [1] concerns ACHN renal.
Assay [2] relates to HL-60(TB) leukemia.
The test system of assay [3] is K-562 leukemia.
Assay [4] relates to SK-OV-3 ovarian.
Assay [5] deals with RPMI-8226 leukemia.
Assay [6] concerns HCT-15 colon.
Assay [7] has as its system A549 NSCLC.
For assay [8], the system named is SK-MEL-2 melanoma.
For assay [9], the system named is SF-295 CNS.
The subject of assay [10] is NCI-H226 lung.

Consider `CCOP(=O)(Cc1ccc(CP(=O)(OCC)OCC)n1C)OCC`, for which the TGI in assay [1], in assay [2], in assay [3], in assay [4], in [5] and in assay [6] was above 100 µM each time. Moreover, the TGI in [7], in [8] and in assay [9] was above 100 µM each time.

For the compound `S=C(N/N=C/c1ccco1)NC12CC3CC(CC(C3)C1)C2`, the TGI in [1], in assay [10], in assay [3], in assay [4], in assay [6] and in assay [7] was above 100 µM throughout. Further, the TGI in assay [8] and in assay [9] was above 100 µM throughout.

As for `O=C1c2ccccc2C2(Br)C(=O)c3ccccc3C12` (stereo not drawn), the TGI in assay [1], in assay [2], in assay [3], in assay [4], in [5] and in assay [6] was above 100 µM each time. Besides, the TGI in assay [7], in [8] and in assay [9] was above 100 µM each time.

As to `Cc1c2cccnc2c(C)c2c1c1cc(CO)ccc1n2C`, the GI50 was 0.937 µM in [1]; 0.264 µM in assay [10]; 1.66 µM in assay [3]; 2.14 µM in [4]; 2.09 µM in assay [5]; 2 µM in assay [6]. In addition, the GI50 in [7] was 2.65 µM; in assay [8], 2.87 µM; in assay [9], 1.74 µM. In addition, the TGI in [1] was found to be 6.89 µM; in assay [10], 1.33 µM; in [3], 20.6 µM; in assay [4], 6.95 µM; in assay [5], 7.3 µM; in [6] it was 15.4 µM. The TGI in [7] was determined as 11.7 µM; in assay [8], 8.47 µM; in assay [9], 10.1 µM.

`CCCCCCCCCC/C=C/CC(=O)SCCNC(=O)CCNC(=O)[C@@H](O)C(C)(C)COP(=O)(O)OP(=O)(O)OCC1OC(n2cnc3c(N)ncnc32)C(O)C1OP(=O)(O)O` (stereo partly drawn): the TGI in assay [1], in assay [10], in assay [2], in assay [3], in assay [4] and in assay [5] was above 10 µM each time. The TGI in [6], in [7] and in assay [9] was above 10 µM throughout.

Consider `Ic1ccc(Nc2nc3nonc3nc2Nc2ccc(I)cc2)cc1`, for which the GI50 was 0.269 µM in assay [1]; 0.175 µM in assay [2]; 0.091 µM in assay [3]; 0.23 µM in assay [4]; 0.107 µM in [5]; 0.144 µM in assay [6]. The GI50 is 0.282 µM in [7], 0.143 µM in [8] and 0.215 µM in assay [9]. The TGI in assay [1] was above 100 µM; in assay [2], 0.545 µM; in assay [3] it was above 100 µM; in assay [4], 0.741 µM; in assay [5] it was 0.574 µM; in [6], above 100 µM. Further, the TGI in [7] is above 100 µM; in assay [8], 0.692 µM; in assay [9], 0.893 µM.

Regarding `CCN1CCN(c2ccc(Nc3cc(N(C)C(=O)Nc4c(Cl)c(OC)cc(OC)c4Cl)ncn3)cc2)CC1`, the GI50 is 2.18 µM in [1]; 2.14 µM in assay [2]; 2.09 µM in [3]; 8.02 µM in assay [4]; 1.76 µM in [5]; 1.87 µM in [6]. Further, the GI50 is 3.13 µM in assay [7], 7.12 µM in [8] and 11.4 µM in [9]. The TGI in [1] was determined as 13.6 µM; in assay [2], 4.42 µM; in assay [3], 5.5 µM; in assay [4] it was 20.8 µM; in assay [5] it was 4.71 µM; in assay [6], 8.94 µM. Moreover, the TGI was determined as 12.1 µM in assay [7], 22.7 µM in [8] and 25.9 µM in [9].

In the case of `C=CC1CC12C(=O)C1OC2(C)C2C(=O)c3cc4ccccc4cc3C(=O)C12` (stereo not drawn), the GI50 in [1] is 16.9 µM; in assay [10] it was 21.5 µM; in assay [2] it was 24.7 µM; in assay [4], 48.1 µM; in assay [6] it was 11.9 µM; in assay [7], 38.3 µM. Also, the GI50 in [8] is 45.8 µM. Further, the TGI in assay [1] was 42.1 µM; in assay [10], 79.8 µM; in [2] it was 65.3 µM; in assay [4], above 100 µM; in assay [6] it was 42.7 µM; in assay [7] it was above 100 µM. In addition, in [8], the TGI is above 100 µM.

Consider `CCC[CH2][Sn]([CH2]CCC)([CH2]CCC)[O]C(=O)CC`, for which the GI50 was 0.17 µM in [1]; 0.163 µM in [2]; 0.237 µM in [3]; 0.143 µM in assay [4]; 0.169 µM in assay [5]; 0.156 µM in assay [6]. Further, the GI50 in [7] was 0.172 µM; in assay [8], 0.186 µM; in assay [9] it was 0.238 µM. Besides, the TGI in [1] stood at 0.333 µM; in assay [2], 0.538 µM; in [4], 0.296 µM; in assay [5] it was 0.506 µM; in assay [6], 0.409 µM; in [7] it was 0.342 µM. In addition, the TGI in assay [8] amounted to 0.37 µM; in assay [9], 0.746 µM.

Regarding `O=C1OC(c2ccccc2)=N/C1=C/C=C/c1ccco1`, the TGI in assay [1], in assay [3], in assay [4], in assay [6], in assay [7] and in [8] was above 100 µM each time. Moreover, in [9], the TGI was above 100 µM.

For the compound `OCCN1CN(CCO)CN(c2nc(N3CN(CCO)CN(CCO)C3)nc(N3CN(CCO)CN(CCO)C3)n2)C1`, the TGI in assay [1] worked out at 1.64 ng/mL; in assay [10], 0.63 ng/mL; in [4] it was 4.64 ng/mL; in assay [5], 0.63 ng/mL; in assay [7], 69.5 ng/mL. Also, in [4], the GI50 is 1.39 ng/mL.
